Assay results as given in patent publication US8207230B2, “Functional role for cannabinoids in autonomic stability during sleep” (The Board of Trustees of the University of Illinois, priority 2001, dated 2012).

Assays:
[1] = test system: Sprague-Dawley rats; test: Serotonin-induced apnea during REM sleep; type: in vivo; details: rat; for frequency of apnea during REM sleep: intraperitoneal, serotonin 0.79 mg/kg alone vs saline; for serotonin-induced increase in REM sleep apnea: pretreatment with 0.1 mg/kg intraperitoneal 15 minutes before 0.79 mg/kg serotonin
Procedure: (§1) Δ^9THC (dronabinol, Roxane Laboratories, Columbus, Ohio) was dissolved in DMSO: oleamide (ICN Biomedicals, Aurora, Ohio) was suspended in peanut oil with sonication for 20 minutes; and serotonin was dissolved in saline. The study was a fully nested, repeated measures crossover design, such that each animal received each of 12 intraperitoneal injections (1 ml/kg) exactly one time: vehicle alone (saline, DMSO, or peanut oil); Δ^9THC alone (0.1, 1.0, or 10.0 mg/kg); oleamide alone (0.1, 1.0, or 10.0 mg/kg); serotonin alone (0.79 mg/kg); or combination injection (0.1 mg/kg Δ^9THC followed, after 15 minutes, by 0.79 mg/kg serotonin or 0.1 mg/kg oleamide followed by 0.79 mg/kg serotonin). Each injection was made 15 minutes prior to polygraphic recording for 6 hours (10:00-16:00). Successive recordings for an individual animal were separated by at least three days and the treatments were given in random order.
(§2) Respiration was recorded by placing each animal, unrestrained, inside a single chamber plethysmograph (PLYUN1R/U; Buxco Electronics, Sharon, Conn.; dimension 6 in.×10 in.×6 in.) ventilated with a bias flow of fresh room air at a rate of 2 L/min. A cable plugged onto the animal's connector and passed through a sealed port was used to carry the bioelectrical activity from the head implant.
An accepted physiological animal model [rat; Monti, et al., Pharamcol. Biochem. Behav., 51:125-131; (1995)] of sleep apnea was used to assess the effects of a cannabinoid receptor agonist activity and/or agents having cannabimimetic activity. More specifically, sleep apneas, defined as cessation of respiratory effort for at least 2.5 seconds, were scored for each recording session and were associated with the stage in which they occurred: NREM or REM sleep. The duration requirement of 2.5 seconds represented at least 2 “missed” breaths, which is therefore analogous to a 10 second apnea duration requirement in humans, which also reflects 2-3 missed breaths. The events detected represent central apneas because decreased ventilation associated with obstructed or occluded airways would generate an increased plethysmographic signal, rather than a pause. An apnea index (AI), defined as apneas per hour in a stage was separately determined for NREM and REM sleep. The effects of sleep stage (NREM vs. REM) and injection (control vs. test compounds) were tested using ANOVA with repeated measures. Multiple comparisons were controlled using Fisher's protected least significant difference (PLSD). In addition, the timing and volume of each breath were scored by automatic analysis (Experimenters' Workbench; Datawave Technologies, Longmont, Colo.). […]

[2] = test system: Sprague-Dawley rats; test: Spontaneous sleep apnea (apnea index) by plethysmography in freely moving rats; type: in vivo; details: rat; for breaths with long duration in typical 6-hour recordings (FIG. 1A): vs vehicle recording; for time dependence of apnea suppression during the 6-hour recording period: NREM and REM sleep; for degree of apnea suppression, Δ^9THC compared with oleamide: highest dose (10.0 mg/kg)
Procedure: These recoding and data analysis methods have been described in detail elsewhere [Carley and Radulovacki (Chest., 115: 1397 (1999)].
Adult, male Sprague-Dawley rats (Sasco-King, Wilmington, Mass.; 11 per test group; 300 g) were maintained on a 12-hour light (08:00-20:00 hour)/12-hour dark (20:00-08:00 hour) cycle for one week, housed in individual cages and given ad libitum access to food and water. Following the one week of acclimatization, animals were subjected to the following surgical procedures.
as §1, §2
Sleep and waking states were assessed using the biparietal EEG and nuchal EMG signals on 10-second epochs as described by Bennington et al. [Sleep 17:28-36 (1994)]. This software discriminated wakefulness (W) as a high frequency low amplitude EEG with a concomitant high EMG tone, NREM sleep by increased spindle and […] activity together with decreased EMG tone, and REM sleep by a low ratio of a delta to theta activity and an absence of EMG tone. Sleep efficiency was measured as the percentage of total recorded epochs staged as NREM or REM sleep.
(§3) An accepted physiological animal model [rat; Monti, et al., Pharamcol. Biochem. Behav., 51:125-131; (1995)] of sleep apnea was used to assess the effects of a cannabinoid receptor agonist activity and/or agents having cannabimimetic activity. More specifically, sleep apneas, defined as cessation of respiratory effort for at least 2.5 seconds, were scored for each recording session and were associated with the stage in which they occurred: NREM or REM sleep. The duration requirement of 2.5 seconds represented at least 2 “missed” breaths, which is therefore analogous to a 10 second apnea duration requirement in humans, which also reflects 2-3 missed breaths. The events detected represent central apneas because decreased ventilation associated with obstructed or occluded airways would generate an increased plethysmographic signal, rather than a pause. An apnea index (AI), defined as apneas per hour in a stage was separately determined for NREM and REM sleep. The effects of sleep stage (NREM vs. REM) and injection (control vs. test compounds) were tested using ANOVA with repeated measures. Multiple comparisons were controlled using Fisher's protected least significant difference (PLSD). In addition, the timing and volume of each breath were scored by automatic analysis (Experimenters' Workbench; Datawave Technologies, Longmont, Colo.). For each animal the mean respiratory rate (RR) and minute ventilation (MV) was computed for W throughout the 6 hour control recording and used as a baseline to normalize respiration during sleep and during test compound administration in that animal. […]

[3] = test system: Sprague-Dawley rats; test: Respiratory rate, minute ventilation and tidal volume by plethysmography; type: in vivo; details: rat; for average respiratory rate (RR) / respiratory minute ventilation: intraperitoneal; for respiratory minute ventilation: compared with the effects on RR
Procedure: as §1, §2
The bias flow of room air (2 l/min) was more than one order of magnitude greater than the alveolar ventilation of the rat, ensuring that no rebreathing occurred. Thermal fluctuations associated with tidal respiration induced changes in plethysmograph pressure proportional to tidal volume. Plethysmograph pressure was monitored using a Validyne DP45-14 differential pressure transducer (±2 cm H20). Prior to each experimental study, the plethysmograph was calibrated for tidal volume using the method described by Epstein et al. (J. Appl. Physiol., 49, 1107 (1980)). An adaptive threshold algorithm (Datawave Systems, Longmont, Colo.) was used to measure the duration and tidal amplitude of each breath in each recording. From these values, instantaneous respiratory rate (RR) and minute ventilation (MV) were computed on a breath by breath basis. Respiratory variability was assessed by calculating the standard deviations of RR and MV for each 10 second recording epoch. These standard deviations were then averaged separately for each sleep/wake state.
as §3

[4] = test system: Sprague-Dawley rats; test: Sleep/wake architecture by EEG/EMG recording; type: in vivo; details: rat, intraperitoneal; for sleep/wake architecture: 6 hour recording
Procedure: Acclimatized animals were anesthetized for the implantation of cortical electrodes for electroencephalogram (EEG) recording and neck muscle electrodes for electromyogram (EMG) recording using a mixture of ketamine (Vedco, Inc., St. Joseph, Mo.; 80 mg/ml) and xylazine (Vedco, Inc., St. Joseph, Mo.; 5 mg/ml; 4:1, volume/volume) at a volume of 1 ml/kg body weight. The surface of the skull was exposed surgically and cleaned with a 20% solution of hydrogen peroxide followed by, a solution of 95% isopropyl alcohol. Next, a dental preparation of sodium fluoride: (Flura-GEL®, Saslow Dental, Mt. Prospect, Ill.) was applied to harden the skull above the parietal cortex and allowed to remain in place for 5 minutes. The fluoride mixture was then removed from the skull above the parietal cortex. The EEG electrodes consisting of four stainless steel machine screws, having leads attached thereto, were threaded into the skull to rest on the dura over the parietal cortex. A thin layer of Justi® resin cement (Saslow Dental, Mt. Prospect, Ill.) was applied to cover the screw heads (of screws implanted in the skull) and surrounding skull to further promote the adhesion of the implant. EMG electrodes consisting of two ball-shaped wires were inserted into the bilateral neck musculature. All leads (i.e., EEG and EMG leads) were soldered to a miniature connector (39F1401, Newark Electronics, Chicago, Ill.). Lastly, the entire assembly was fixed to the skull with dental cement.
as §1
Sleep and waking states were assessed using the biparietal EEG and nuchal EMG signals on 10-second epochs as described by Bennington et al. [Sleep 17:28-36 (1994)]. […] Sleep efficiency was measured as the percentage of total recorded epochs staged as NREM or REM sleep.

[5] = biological target: CB1 receptors (Homo sapiens, UniProt P21554); details: cited from earlier work
[6] = biological target: CB2 receptors (Homo sapiens, UniProt P34972); details: cited from earlier work
[7] = intraperitoneal, 0.1 mg/kg, administered alone
[8] = intraperitoneal, 1.0 mg/kg, vs vehicle
[9] = intraperitoneal, 10.0 mg/kg, vs vehicle
[10] = 0.1-10.0 mg/kg, sleep/wake states

CB1 receptors, sequence (P21554 whole entry): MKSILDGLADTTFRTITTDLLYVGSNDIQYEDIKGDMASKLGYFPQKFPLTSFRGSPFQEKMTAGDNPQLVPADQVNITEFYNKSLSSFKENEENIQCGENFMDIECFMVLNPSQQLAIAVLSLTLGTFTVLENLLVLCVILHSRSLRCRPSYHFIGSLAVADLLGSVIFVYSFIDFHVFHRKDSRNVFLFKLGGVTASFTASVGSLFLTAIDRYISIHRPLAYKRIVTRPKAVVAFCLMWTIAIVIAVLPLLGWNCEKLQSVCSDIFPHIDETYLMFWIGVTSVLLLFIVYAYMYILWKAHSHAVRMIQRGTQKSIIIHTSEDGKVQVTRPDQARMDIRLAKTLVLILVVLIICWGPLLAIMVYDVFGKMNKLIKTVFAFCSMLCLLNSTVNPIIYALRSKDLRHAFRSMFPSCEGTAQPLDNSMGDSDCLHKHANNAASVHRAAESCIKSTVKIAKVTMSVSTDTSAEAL
CB2 receptors, sequence (P34972 whole entry): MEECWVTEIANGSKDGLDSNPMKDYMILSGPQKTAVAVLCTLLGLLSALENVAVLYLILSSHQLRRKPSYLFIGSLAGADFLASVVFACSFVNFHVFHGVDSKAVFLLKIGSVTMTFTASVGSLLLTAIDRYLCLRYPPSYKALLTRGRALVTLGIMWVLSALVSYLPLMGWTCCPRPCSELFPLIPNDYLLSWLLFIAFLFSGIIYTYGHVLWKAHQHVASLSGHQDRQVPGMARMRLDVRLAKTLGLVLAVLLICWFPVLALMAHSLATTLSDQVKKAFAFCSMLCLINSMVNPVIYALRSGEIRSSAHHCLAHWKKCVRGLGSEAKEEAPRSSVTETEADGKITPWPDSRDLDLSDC

Structure (SMILES) | breaths with long duration in typical 6-hour recordings (FIG. 1A) ([2]; 10.0 mg/kg) | apnea expression during REM sleep [2, 7] | frequency of apneas during NREM sleep [2, 8] | apnea expression during REM sleep [2, 9] | frequency of apneas during NREM sleep [2, 9] | time dependence of apnea suppression during the 6-hour recording period ([2]; intraperitoneal) | degree of apnea suppression, Δ^9THC compared with oleamide ([2]; intraperitoneal) | average respiratory rate (RR) ([3]; 10.0 mg/kg, 6-hour recording) | average respiratory rate (RR) [3, 10] | respiratory minute ventilation ([3]; 0.1-10.0 mg/kg) | serotonin-induced increase in REM sleep apnea [1] | further results
NCCc1c[nH]c2ccc(O)cc12 [serotonin] | – | – | – | – | – | – | – | – | – | – | – | frequency of apnea during REM sleep [1]: significant increase in the frequency of apnea; frequency of apnea during REM sleep ([1]; listed as Serotonin): significant increase in REM sleep-apnea
CCCCCCCC/C=C\CCCCCCCC(N)=O [oleamide] | clear reduction in breaths with durations exceeding 1.5 seconds | neither Δ^9THC nor oleamide had any effect | suppressed apnea expression | suppressed apnea expression | suppressed apnea expression | persisted throughout the 6 hour recording interval | equivalent | tended to increase | dose dependent elevation of RR | Equivalent effects | completely blocked | frequency of apneas during NREM sleep ([2]; intraperitoneal, 0.1 mg/kg, vs vehicle): suppressed apnea expression; apnea expression during REM sleep [2, 8]: suppressed apnea expression; respiratory rate (RR), statistical significance of elevation ([3]; 10.0 mg/kg vs. vehicle, p=0.03): achieved statistical significance only during wakefulness; sleep/wake architecture ([4]; 0.1 mg/kg): increased REM sleep with decreased wakefulness; sleep/wake architecture ([4]; 1.0 mg/kg): increased REM sleep with decreased wakefulness; sleep/wake architecture ([4]; 10.0 mg/kg): increased NREM sleep with decreased REM sleep; binding affinity to CB1 receptors [5]: does not appear to bind with high affinity; binding affinity to CB2 receptors [6]: does not appear to bind with high affinity
CCCCCc1cc(O)c2c(c1)OC(C)(C)[C@@H]1CCC(C)=C[C@@H]21 [Δ^9THC, 9-tetrahydrocannabinol] | clear reduction in breaths with durations exceeding 1.5 seconds | neither Δ^9THC nor oleamide had any effect | reduced the frequency of apneas | significant decrease | reduced the frequency of apneas | not time-dependent | equivalent | significantly reduced in all sleep/wake states | dose dependent reduction in RR | Equivalent effects | completely blocked | spontaneous apnea during all sleep stages ([2]; intraperitoneal, 0.1-10.0 mg/kg, 6-hour recording, vs vehicle): strongly suppressed spontaneous apnea; change in REM sleep expression ([4]; highest dose tested (10.0 mg/kg), p=0.0002): −66%
